Counter-ions that a name gives are not always drawn. Like-named read-outs stand apart in the source and are kept apart here.
Tested on: MEF2 transcriptional activity
Assay: MEF2 transcriptional activity screen (Luciferase-MEF2 reporter in human neural progenitor cells)
Format: cell-based
[1] = concentration for half-maximal activity derived from the hill equation model, MEF2 luciferase reporter, read-out: qAC50
[2] = Homo sapiens, concentration for half-maximal activity derived from the hill equation model, MEF2 luciferase reporter, read-out: qAC50

Molecule | EC50 [1] [M] | EC50 [2] [M] | also measured
CCN1CCC(Oc2c(C#N)ncc3[nH]c4ncccc4c23)CC1 [GDC-0425] | 1.26e-06 | – | –
O=C(NOCC1CC1)c1ccc(F)c(F)c1Nc1ccc(I)cc1Cl [CI-1040] | – | 8.54e-07 | –
CC(C)OC(=O)CCC/C=C\C[C@H]1C(=O)C=C[C@@H]1/C=C/[C@@H](O)CCc1ccccc1 [Posaraprost] | – | > 4.97e-06 | –
O=C(NO)c1ccc(C2=Nc3ccccc3Oc3ccccc32)cc1 [EVP-0334] | – | 3.03e-06 | –
COc1ccc2nc(-c3cccc(F)c3)cc(O)c2c1OP(=O)(OCc1ccccc1)OCc1ccccc1 [TRX-818] | – | 1.01e-05 | –
COc1ccc(C(=O)/C(Br)=C/C(=O)O)cc1 [Bromebrate sodium] | – | > 1.99e-05 | –
CC(C)(CO)c1cc2cc(NC(=O)C3(c4ccc5c(c4)OC(F)(F)O5)CC3)c(F)cc2n1C[C@@H](O)CO [VX-661] | – | > 1.99e-05 | –
CN(C)Cc1ccc(S(=O)(=O)n2ccc(/C=C/C(=O)NO)c2)cc1 [resminostat] | 1.23e-06 | – | –
Nc1ccccc1NC(=O)c1ccc(CNC(=O)OCc2cccnc2)cc1 [entinostat] | – | 1.49e-07 | –
CN(C)CCCNC(=O)/C(=C/CCCCC(=O)NO)COc1cccc2ccccc12 [CG-200745] | – | 2.14e-07 | –
Cn1cc(-c2ccc(S(=O)(=O)n3ccc(/C=C/C(=O)Nc4ccccc4N)c3)cc2)cn1 [4SC-202] | – | 1.75e-05 | –
O=C(NO)c1cnc(N2CCN(S(=O)(=O)c3ccc4ccccc4c3)CC2)nc1 [JNJ-16241199] | – | 1.59e-07 | –
O=C(/C=C/c1cccc(S(=O)(=O)Nc2ccccc2)c1)NO [belinostat] | – | 6.7e-07 | –
CCCCc1ccc2[nH]c(NC(=O)OC)nc2c1 [PARBENDAZOLE] | 1.75e-06 | – | –
O=C(Nc1nc2cccc(-c3ccc(CN4CCS(=O)(=O)CC4)cc3)n2n1)C1CC1 [Filgotinib] | > 1.99e-05 | – | –
OXAMFLATIN | > 1.99e-05 | – | –
COc1cccc(-c2ccc(NC(=O)C3=C(C(=O)O)CCC3)c(F)c2)c1 [vidofludimus] | – | > 1.99e-05 | –
Cn1cnc2c(F)c(Nc3ccc(Br)cc3F)c(C(=O)NOCCO)cc21 [binimetinib] | > 1.99e-05 | – | –
Cc1nn(C)cc1CN1CCC(c2ccc(C(=O)Nc3ccccc3N)cc2)CC1 [AZD-9468] | > 1.99e-05 | – | –
CN1Cc2ccccc2[C@@H]2c3cccc4[nH]cc(c34)C[C@H]21 [CY-208-243] | 1.96e-05 | – | –
Acriflavine | 2.31e-06 | – | –
Cc1[nH]c2ccccc2c1CCNCc1ccc(/C=C/C(=O)NO)cc1 [Panobinostat lactate] | – | 1.22e-08 | –
COC(=O)Nc1nc2cc(C3(O)c4ccccc4C(=O)N3c3cc(Cl)ccc3C)ccc2[nH]1 (centres unmarked) [BMS-908662] | > 1.99e-05 | – | –
C[C@H](NC(=O)C(=O)Nc1ccccc1C(C)(C)C)C(=O)N[C@@H](CC(=O)O)C(=O)COc1c(F)c(F)cc(F)c1F [emricasan] | – | 8.71e-06 | –
CN(C)CCCn1c(=O)c2ccccc2c2ccccc21 [FANTRIDONE] | 5.38e-06 | – | –
CY-190602 | 2.41e-06 | – | –
CCC(C)SSc1ncc[nH]1 (centres unmarked) [PX-12] | 9.95e-07 | – | –

Molecule | EC50 [1] [M] | EC50 [2] [M] | also measured
CN(C)C(C(=O)Nc1ccc2c(=O)[nH]ccc2c1)c1ccsc1 (centres unmarked) [Verosudil] | 7.54e-06 | – | –
CCCCc1nc2cc(/C=C/C(=O)NO)ccc2n1CCN(CC)CC [pracinostat] | – | 2.1e-07 | –
CCN(CC)Cc1ccc2cc(COC(=O)Nc3ccc(C(=O)NO)cc3)ccc2c1 [Givinostat hydrochloride] | – | 9.72e-07 | –
COC(=O)C1=C(C)NC(C)=C(C(=O)OCC(C)=O)C1c1ccccc1[N+](=O)[O-] (centres unmarked) [ARANIDIPINE] | 3.11e-06 | – | –
CCCNC(=O)c1ccc2c(c1)N(C(C)CN1CCCC1)c1ccccc1S2 (centres unmarked) [Apadoline] | – | 1.97e-05 | –
O=C(/C=C/c1ccc(CN(CCO)CCc2c[nH]c3ccccc23)cc1)NO [LAQ 824] | 5.3e-07 | – | –
O=c1oc(CCN2CCN(c3ccccc3)CC2)c(-c2ccc(Cl)cc2)o1 [CLODOXOPONE] | – | > 1.99e-05 | –
Cn1nccc1Nc1nccc(-c2ccn([C@H](CO)c3ccc(Cl)c(F)c3)c(=O)c2)n1 [RG-7842] | – | 1.23e-05 | –
C#Cc1cccc(Nc2ncnc3cc(OC)c(OCCCCCCC(=O)NO)cc23)c1 [CUDC-101] | – | 1.05e-06 | –
CCOC(=O)/C(=C/c1ncc([N+](=O)[O-])n1C)C(C)=O [Propenidazole] | 3.11e-06 | – | –
CCCCCCC(C)(C)c1cc(O)c2c(c1)OC(C)(C)[C@H]1CC=C(CO)C[C@H]21 [Dexanabinol] | – | 7.97e-06 | –
Cc1sc2c(c1C)C(c1ccc(Cl)cc1)=N[C@@H](CC(=O)Nc1ccc(O)cc1)c1nnc(C)n1-2 [OTX-015] | – | 4.51e-07 | –
CCCCCN=C(N)Nc1nc(-c2cnc(C)[nH]2)cs1 [CP 66948] | > 1.99e-05 | – | –
CC(=O)Nc1ccc(C(=O)Nc2ccccc2N)cc1 [Tacedinaline] | – | 1.31e-05 | –
CC[C@]1(O)C[C@@H]2CN(CCc3c([nH]c4ccccc34)[C@@](C(=O)OC)(c3cc4c(cc3OC)N(C)[C@H]3[C@@](O)(C(=O)OC)[C@H](OC(C)=O)[C@]5(CC)C=CCN6CC[C@]43[C@@H]65)C2)C1 [Vinblastine sulfate] | – | – | EC50 (read-out: qAC50): 6.73e-08 M
O=c1cc(-c2ccc(O)cc2)oc2cc(O)cc(O)c12 [APIGENIN] | – | 4.69e-06 | –
CC(C)Nc1cc(-c2c[nH]c(C(=O)N[C@H](CO)c3cccc(Cl)c3)c2)c(Cl)cn1 [BVD-523] | 9.87e-07 | – | –
CSCCOC(=O)C1=C(C)NC(C)=C(C(=O)OCCSC)C1c1ccccc1[N+](=O)[O-] | – | 2.07e-06 | –
O=C(NO)c1cnc(N2C[C@@H]3[C@H](C2)[C@H]3NCc2ccc3cc(F)ccc3n2)nc1 [CHR-3996] | – | 2.8e-07 | –
CCN(CC)CCNc1ccc(CNC)c2sc3ccccc3c(=O)c12 [WIN 33156] | – | > 1.99e-05 | –
COC(=O)Nc1nc2cc(Sc3ccc(NC(=O)[C@H](C)N)cc3)ccc2[nH]1 [DENIBULIN] | 1.51e-06 | – | –
COc1ccc2c(c1)-c1nn(CCCN(C)C)c3ccc([N+](=O)[O-])c(c13)N2 [Pyrazoloacridine] | > 1.99e-05 | – | –
C[C@H](Nc1cc(-c2cnn(C)c2)cc(Nc2cnccn2)n1)c1ccc(F)cc1 [NS-018] | 1.12e-05 | – | –
COc1ccc2[nH]cc(CCN(C(C)C)C(C)C)c2c1 [5-MeO-DIPT] | > 1.99e-05 | – | –
COc1cc(F)c(F)c(Nc2ccc(I)cc2F)c1NS(=O)(=O)C1(C[C@H](O)CO)CC1 [Refametinib] | – | 2.73e-06 | –
CCCc1cc(O)c2c(c1)OC(C)(C)[C@@H]1CCC(C)=C[C@@H]21 [DELTA-9-TETRA-[…]] | – | 2.29e-06 | –
XR 5944 | 4.52e-06 | – | –

Molecule | EC50 [1] [M] | EC50 [2] [M] | also measured
CCOC(=O)OC(C)OC(=O)CNC(=O)[C@@H](CSSC[C@@H](N)CCSC)Cc1ccccc1 (some centres unmarked) [PL-37] | – | 1.29e-05 | –
CC[C@@H]1C(=O)N(C)c2cnc(Nc3ccc(C(=O)NC4CCN(C)CC4)cc3OC)nc2N1C1CCCC1 [BI-2536] | – | 2.09e-07 | –
CC(CO)(CO)NCc1ccc2c3c(cccc13)-c1ccccc1-2 [773U82] | – | 1.89e-05 | –
O=C(CCCCCCC(=O)Nc1cccnc1)NO [pyroxamide] | – | > 1.99e-05 | –
Clc1ccc2oc(C(c3ccccc3Cl)n3ccnc3)cc2c1 (centres unmarked) [BECLICONAZOLE] | 5.1e-06 | – | –
CC(=O)C(=Cc1ccccc1)C(C)=O | – | 1.57e-05 | –
N/C(=N\Nc1ccccc1)c1ccccc1 [CBS-1114] | – | > 1.99e-05 | –
CN(C)c1ccc2nc3ccc(N(C)C)cc3[s+]c2c1 [methylthioninium chloride] | 3.77e-06 | – | –
C=C(C)[C@]12C[C@@H](C)[C@@]34O[C@](Cc5ccccc5)(O[C@@H]1[C@@H]3C=C(COC(=O)Cc1ccc(O)c(OC)c1)C[C@]1(O)C(=O)C(C)=C[C@@H]41)O2 [Resiniferatoxin] | – | 5.11e-09 | –
CC(C)(C)c1[nH]cnc1/C=c1\[nH]c(=O)/c(=C/c2ccccc2)[nH]c1=O [plinabulin] | 2.67e-06 | – | –
Cc1c(OCC(F)(F)F)ccnc1C[S@@+]([O-])c1nc2ccccc2[nH]1 [dexlansoprazole] | > 1.99e-05 | – | –
O=C(NOCCO)c1cc(CN2OCCCC2=O)c(F)c(F)c1Nc1ccc(I)cc1F [CH-4987655] | – | – | EC50 (Homo sapiens, read-out: qAC50 [M]): 1.07e-07 M
COc1cc2c(cc1O)C[C@H]1c3c(cc(O)c(OC)c3-2)CCN1C [boldine] | – | 1.33e-05 | –
CC1(C)C(=O)Nc2cc3[nH]c(-c4ccncc4)nc3cc21 [ADIBENDAN] | > 1.99e-05 | – | –
C/C(=N\NC(=O)c1ccc(C(=O)O)s1)c1csc(-c2ccc(Cl)c(Cl)c2)c1O [ONO-7746] | – | 2.57e-06 | –
Chidamide | 3.67e-08 | – | –
CN(C)CCNC(=O)c1cccc2cc3ccccc3nc12 [SN-22995] | – | > 1.99e-05 | –
O=C(CCCCCCNC(=O)c1cnc(N(c2ccccc2)c2ccccc2)nc1)NO [ricolinostat] | 2.79e-06 | – | –
CN(C)CCOc1ccc2[nH]c(C(=O)NCC#Cc3ccc(C(=O)NO)cc3)cc2c1 [CRA-026440] | 1.29e-05 | – | –
COC(=O)C1=C(C)NC(C)=C(C(=O)OC(C)C)C1c1ccccc1[N+](=O)[O-] (centres unmarked) | – | 1.53e-06 | –
Cn1cc(CNCC2CCN(c3ncc(C(=O)NO)cn3)CC2)c2ccccc21 [quisinostat] | – | 9.07e-08 | –
retapamulin | 1.96e-05 | – | –
CN(C)Cc1c(C(=O)NCCOc2ccc(C(=O)NO)cc2)oc2ccccc12 [abexinostat] | – | 2.2e-06 | –
O=C(Cc1ccc(-c2ccc(N3CCOCC3)cc2)cn1)NCc1cccc(F)c1 [KX-02] | 5.8e-07 | – | –
COc1ccc2[nH]c(C(=O)c3ccccc3)cc2c1 [D-64131] | 3.74e-06 | – | –
CC(C)c1ccc(CN2CCN(C(c3ccc(F)cc3)c3ccc(F)cc3)CC2)c(=O)c(NCCO)c1 [U 92032] | – | > 1.99e-05 | –

From patent publication US20250161243A1, “MEF2 TRANSCRIPTIONAL ACTIVATORS TO TREAT NEUROLOGIC CONDITIONS” (The Scripps Research Institute, priority 2022, published 2025)
